In patent US20150051246A1 (priority 2013, published 2015):

System: male C57BL/6NCrl mice
Test: Object Location Task (OLT), spatial memory, 24 h retention interval
Format: in vivo
Conditions: for d2 index, discrimination index for T2: 3 h after T1, 24 h interval
Source text: The objective of this study was to evaluate the cognitive improvement effects of Roflumilast on spatial memory employing Object Location Task (OLT) in male C57BL/6NCrl mice. Roflumilast was compared with data of the already established PDE4 inhibitor Rolipram in the same model.
Twenty-four 7 month-old male C57BL/6NCrl mice (Charles River, L'Arbresle, France) were used (average body weights: 27.6 g). The animals were kept under a 12/12-hour light/dark cycle (lights on from 07.00 pm to 07.00 am) with free access to food and water. All testing was done between 09.00 am and maximally 06.00 pm.
Both rolipram (Sigma-Aldrich St. Louis, USA; MW 275.34) and roflumilast (Biocrea, Radebeul, Germany; MW 403.21) were dissolved in dimethylsulfoxide (DMSO) and kept at 4° C.; this stock solution was used for further dilutions in 0.5% methylcellulose. Each of rolipram and roflumilast is used in form of its free base. All injected solutions consisted of 0.5% methylcellulose with a fixed DMSO percentages (1.2%) (vehicle).
For the Object Location Task (OLT), doses of 0.01 mg/kg, 0.03 mg/kg and 0.1 mg/kg of Rolipram or Roflumilast or vehicle were administered subcutaneously (s.c.). Based on previous findings, PDE4 inhibitor single administration was performed 3 hours after the first trial as this has an optimum effect on object memory performance. The injection volume was 5 μl/g.
The OLT apparatus consisted of a circular arena, 40 cm in diameter. Half of the 40 cm transparent polyvinyl chloride wall was covered from the outside with white paper. Two objects were placed symmetrically about 10 cm away from the wall on the separation line, between the transparent and covered side of the arena. Four different sets of objects were available: (1) a cone made of brass (maximal diameter 6 cm and total height 3.8 cm), (2) a transparent glass bottle (diameter 2.7 cm, height 8.5 cm) filled with sand and water, (3) a massive metal cube (2.5 cm×5 cm×7.5 cm) with two holes (diameter 1.5 cm), and (4) a massive aluminum cube with a tapering top (4.5 cm×4.5 cm×8.5 cm).
A testing session comprised two trials of 4 minutes. Before each trial, mice were placed in an empty Makrolon cage (incubation cage) for the same amount of time as the trial (4 min). During the first trial (T1), two identical objects were placed symmetrically about 10 cm away from the wall on the separation line between the transparent and covered side of the arena. After the first exploration period of 4 min, the mouse was put back in its home cage. Mice then received treatment at 3 hours post T1. Subsequently, after a predetermined delay interval (24 h), the mouse was placed in the apparatus for the second trial of 4 min (T2). Two identical objects as in T1 were used; one object was placed in the previously used position, whereas the other was placed in a novel position. The novel position of the object could either be a fixed distance towards the front or a fixed distance towards the back of the arena for both objects. The times spent exploring each object during T1 and T2 were recorded manually using a personal computer. All objects and locations were used in a balanced manner to exclude possible object and/or location preferences. To avoid olfactory cues, the objects were thoroughly cleaned with 70% ethanol after each trial. The testing order of conditions was determined randomly.
The measurements reflected the time spent by the mice in exploring each object during T1 and T2. The time spent in exploring the two identical samples in T1 were represented by ‘a1’ and ‘a2’, respectively. The time spent in exploring the sample and the new object in T2 were represented by ‘a’ and ‘b’, respectively. From these exploration times the following variables were calculated: e1, e2, and d2 (Table 1). The d2 index is a relative measure of discrimination corrected for exploratory activity. […]

## O=C(Nc1c(Cl)cncc1Cl)c1ccc(OC(F)F)c(OCC2CC2)c1 [roflumilast, N-(3,5-dichloropyridin-4-yl)-3-cyclopropylmethoxy-4-difluoromethoxybenzamide]
0.01 mg/kg s.c.
  d2 index, discrimination index for T2: 0.04
0.03 mg/kg s.c.
  d2 index, discrimination index for T2: 0.34
0.1 mg/kg s.c.
  d2 index, discrimination index for T2: 0.00
s.c.
  dose effective in improving spatial memory: 0.03 mg/kg
Single subcutaneous 0.01 mg/kg
  effect on spatial memory (in words): nearly no effect
Single subcutaneous 0.03 mg/kg
  effect on spatial memory (in words): pronounced effect on spatial memory
Single subcutaneous 0.1 mg/kg
  effect on spatial memory (in words): completely no effect
